Results from US7129269B2, “Compound” (Sterix Ltd., priority 1996, dated 2006).

Legend:
oestrone sulphatase [1] = target: T1, oestrone sulphatase (Homo sapiens, UniProt P08842); test: Oestrone sulphatase inhibition in placental microsomes; assay type: biochemical; details: placental microsomes
T1 construct: from tissue; host or cells: placenta (microsomes, 100,000 g)
T1 sequence (P08842 22-583): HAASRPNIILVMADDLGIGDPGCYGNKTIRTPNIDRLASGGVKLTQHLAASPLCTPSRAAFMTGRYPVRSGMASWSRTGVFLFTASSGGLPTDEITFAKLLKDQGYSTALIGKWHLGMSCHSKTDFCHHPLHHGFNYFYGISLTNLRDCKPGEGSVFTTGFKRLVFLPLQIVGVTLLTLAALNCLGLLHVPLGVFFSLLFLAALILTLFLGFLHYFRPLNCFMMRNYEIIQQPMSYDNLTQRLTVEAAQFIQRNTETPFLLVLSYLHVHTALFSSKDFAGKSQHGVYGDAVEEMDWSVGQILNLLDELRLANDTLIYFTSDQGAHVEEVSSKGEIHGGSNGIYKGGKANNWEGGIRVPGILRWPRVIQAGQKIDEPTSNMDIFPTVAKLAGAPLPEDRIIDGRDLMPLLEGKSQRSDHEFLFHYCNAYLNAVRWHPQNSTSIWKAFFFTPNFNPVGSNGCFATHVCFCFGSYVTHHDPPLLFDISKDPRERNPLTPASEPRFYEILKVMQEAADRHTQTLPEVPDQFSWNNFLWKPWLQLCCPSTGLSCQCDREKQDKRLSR

[2] = target: T2, oestrone sulphatase (E1-STS) (Homo sapiens, UniProt P08842); test: Oestrone sulphatase (E1-STS) inhibition in intact MCF-7 breast cancer cells; assay type: cell-based
T2 construct: endogenous in cells; host or cells: MCF-7 breast cancer cells
T2 sequence (P08842 22-583): T1 sequence (P08842 22-583)

aromatase = target: T3, aromatase (Homo sapiens, UniProt P11511)
T3 sequence (P11511 1-503): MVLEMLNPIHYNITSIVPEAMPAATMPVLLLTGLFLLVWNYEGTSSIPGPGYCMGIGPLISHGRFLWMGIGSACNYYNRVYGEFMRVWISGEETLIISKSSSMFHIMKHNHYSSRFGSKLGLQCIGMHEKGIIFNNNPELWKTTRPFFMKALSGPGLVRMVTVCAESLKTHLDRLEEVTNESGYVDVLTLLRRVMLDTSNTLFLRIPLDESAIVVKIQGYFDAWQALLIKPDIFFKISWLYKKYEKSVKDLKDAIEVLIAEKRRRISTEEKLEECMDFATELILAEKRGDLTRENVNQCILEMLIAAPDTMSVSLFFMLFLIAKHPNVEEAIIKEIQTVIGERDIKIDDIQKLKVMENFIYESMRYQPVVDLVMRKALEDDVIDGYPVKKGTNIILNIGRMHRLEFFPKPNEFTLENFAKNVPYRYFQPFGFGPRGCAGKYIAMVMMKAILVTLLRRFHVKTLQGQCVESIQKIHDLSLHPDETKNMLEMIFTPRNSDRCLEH

oestrone sulphatase [3] = target: T4, oestrone sulphatase (Rattus norvegicus, UniProt P15589); test: In vivo inhibition of oestrone sulphatase activity in rat liver; details: 24 hours after single oral dose in propylene glycol, 10 mg/Kg
T4 construct: from tissue; host or cells: rat liver
T4 sequence (P15589 20-577): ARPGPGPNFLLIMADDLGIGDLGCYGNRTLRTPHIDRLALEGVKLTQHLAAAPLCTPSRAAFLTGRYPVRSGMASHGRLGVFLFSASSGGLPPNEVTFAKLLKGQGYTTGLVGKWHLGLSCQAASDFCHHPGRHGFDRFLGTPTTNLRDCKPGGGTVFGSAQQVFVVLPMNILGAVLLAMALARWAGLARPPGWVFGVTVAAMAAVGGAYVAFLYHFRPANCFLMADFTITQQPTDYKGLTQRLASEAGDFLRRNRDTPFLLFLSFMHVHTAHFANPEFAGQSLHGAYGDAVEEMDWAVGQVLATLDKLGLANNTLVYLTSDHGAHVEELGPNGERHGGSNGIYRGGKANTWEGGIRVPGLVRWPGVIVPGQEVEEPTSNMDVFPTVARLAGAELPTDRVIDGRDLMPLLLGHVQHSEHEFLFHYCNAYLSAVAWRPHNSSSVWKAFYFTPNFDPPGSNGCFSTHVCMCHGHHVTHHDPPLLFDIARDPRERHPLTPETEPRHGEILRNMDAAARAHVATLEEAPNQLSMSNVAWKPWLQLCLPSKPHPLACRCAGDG
Method: FIG. 11 presents in vivo inhibition of oestrone sulphatase activity in rat liver for two isoflavones according to the present invention. […] Compounds were administered as a single 10 mg/Kg dose. Oestrone sulphatase activity was assayed in tissue samples obtained 24 h after drug administration.

Row | Structure (SMILES) | % INHIBITION Sulphatase (oestrone sulphatase [1]; 1 μM) [%] | % INHIBITION Sulphatase (oestrone sulphatase [1]; 10 μM) [%] | % Inhibition of sulphatase activity in MCF-7 cells ([2]; 1 μM) [%] | % Inhibition of sulphatase activity in MCF-7 cells ([2]; 10 μM) [%] | % Inhibition of aromatase activity in placental microsomes at 10 μM (aromatase) [%] | % INHIBITION Sulphatase (oestrone sulphatase [1]; 10 μM, listed as 5,7-dehydroxy flavanone-4′-sulphamate) [%] | % Inhibition of sulphatase activity in MCF-7 cells ([2]; 0.1 μM) [%] | % Inhibition of oestrone sulphatase in vivo (oestrone sulphatase [3]) [%]
1 | NS(=O)(=O)Oc1cc(O)c2c(=O)cc(-c3ccccc3)oc2c1 [Compound 3, 5-Hydroxyflavone 7-O-sulphamate] | 8 | 21 | 4.2 ± 0.9 | 20.6 ± 1.2 | 85 | – | – | –
2 | NS(=O)(=O)Oc1ccc(C2CC(=O)c3c(O)cc(O)cc3O2)cc1 (stereo not shown) [Compound 20, 5,7-Dihydroxyflavanone 4′-O-sulphamate] | – | – | 79 ± 1.2 | > 99 | – | 98 | 30 ± 2.8 | 44.2 ± 3.8
